Results taken from the SangsterLogP compilation.

Test: method code SF-HPLC, from DOI: 10.1021/ac9902291

SMILES	logP
c1ccc2c(c1)sc1ccccc12	4.36
Cc1cc2ccccc2s1	3.71
O=S1(=O)C=Cc2ccccc21	1.01
Cc1cccc2ccsc12	3.85
c1ccc2c(c1)ccc1sc3ccccc3c12	5.19
c1cc2ccc3cccc4sc(c1)c2c34	4.95
Cc1cccc2sccc12	3.57
c1ccc2cc3sccc3cc2c1	4.5
c1ccc2c(c1)ccc1sccc12	4.41
c1ccc2c(c1)ccc1c3ccsc3ccc21	5.35
c1ccc2c(c1)ccc1ccsc12	4.55
